Measurements reported in US8044100B2, “Methods and compositions for treating amyloid-related diseases” (Bellus Health Inc., priority 2004, dated 2011).

Biological target: T1, NAC peptide (Homo sapiens, UniProt P37840)
T1 construct: NAC is a 35 amino acid long peptide with highly hydrophobic stretches
Experiment: Binding to NAC peptide by electrospray mass spectrometry
Details: 5:1 ratio compound:NAC (100 μM:20 μM or 200 μM:40 μM), pH 7.4; bound complex peak area / unbound NAC peak area
Protocol: The ability of the compounds of the present invention to bind to NAC peptide in aqueous solution was evaluated. The binding ability correlates to the intensities of the peptide-compound complex peaks observed by the Electrospray Mass Spectrum. Millipore distilled deionized water was used to prepare all aqueous solutions. For pH determination a Beckman Φ36 pH meter fitted with a Corning Semi-Micro Combination pH Electrode was employed.
The optimal cone voltage was determined to be 20V.
Mass spectrometry—Mass spectrometric analysis was performed using a Waters ZQ 4000 mass spectrometer equipped with a Waters 2795 sample manager. MassLynx 4.0 (earlier by MassLynx 3.5) was used for data processing and analysis. Test compounds were mixed with disaggregated peptides in aqueous media (6.6% EtOH) at a 5:1 ratio (20 μM NAC:100 μM of test compound or 40 μM NAC:200 μM of test compound). The pH of the mixture was adjusted to 7.4 (+0.2) using 0.1% NaOH (3-5 μL). Periodically, NAC peptide solution at 20 μM or 40 μM was also prepared in the same fashion and run as control. The spectra were obtained by introducing the solutions to the electrospray source by direct infusion using a syringe pump at a flow rate of 25 μl/min, and scanning from 100 to 2100 Da in the positive mode. The scan time was 0.9 sec per scan with an inter-scan delay of 0.1 sec and the run time was 5 min for each sample. All the mass spectra were sum of 300 scans. The desolvation and source temperature was 70° C. and the cone and capillary voltage were maintained at 20 V and 3.2 kV respectively.
The total area under the peaks for the bound NAC-compound complex divided by total area under the peaks for unbound NAC was determined for each compound tested.

SMILES | Binding Strength
NCCS(=O)(=O)O [H2NCH2CH2SO3H] | + (Weak; when the total binding is between 70% and 30%)
O=S(=O)([O-])OCCCOS(=O)(=O)[O-].[Na+].[Na+] [NaO3SOCH2CH2CH2OSO3Na] | − (None; when the total binding is between 30% and 0%)
